Reference: US20250064763A1, “METHODS OF TREATMENT OF PRIMARY BILIARY CHOLANGITIS” (Ipsen Pharma, priority 2023, published 2025)

How the values were obtained:
patients with PBC = settings: cited from earlier work
subjects with PBC = test: Clinical study of elafibranor, biochemical markers in plasma; settings: human, in vivo

SMILES | effect on pruritus (patients with PBC; phase III study, OCA groups compared to placebo) | liver injury (patients with PBC; post marketing reports, PBC patients with compensated or decompensated cirrhosis) | biochemical markers in the plasma (subjects with PBC)
CC[C@H]1[C@@H](O)[C@@H]2[C@H](CC[C@]3(C)[C@@H]([C@H](C)CCC(=O)O)CC[C@@H]23)[C@@]2(C)CC[C@@H](O)C[C@@H]12 [OCA, obeticholic acid] | exacerbate pruritus | led to hepatic decompensation and liver failure | –
CSc1ccc(C(=O)/C=C/c2cc(C)c(OC(C)(C)C(=O)O)c(C)c2)cc1 [elafibranor] | – | – | relevant reduction
